Data taken from ChEMBL document CHEMBL3885881, “DrugMatrix”.

Columns and labels:
Rattus norvegicus [1] = species: Rattus norvegicus; assay: DrugMatrix - Regimen: Daily Repeat; assay type: toxicity, organism-based, Sprague-Dawley; parameters: regimen Daily Repeat, gender Male, age 6-8 weeks; conditions: in vivo, po, 500 mg/kg, route oral GAVAGE, dose level High, vehicle .5 % CMC
Rattus norvegicus [2] = species: Rattus norvegicus; assay type: toxicity, organism-based, Sprague-Dawley; conditions: in vivo, po, 500 mg/kg, 24 h, route oral GAVAGE, dose level High, time 1 day, vehicle .5 % CMC
Description: DrugMatrix - Regimen: Single

[3] = […], tissue Plasma, time 14 day

SMILES: Clc1ccccc1 [CHLOROBENZENE]
- URIC ACID (Rattus norvegicus [1]; 120 h, tissue Plasma, time 5 day): 1.8 mg/dL
- ABSOLUTE BASOPHIL (Rattus norvegicus [1]; […], tissue Blood, time 14 day): 0 CELLS/uL
- ABSOLUTE EOSINOPHIL (Rattus norvegicus [1]; […], tissue Blood, time 14 day): 209.6 CELLS/uL
- ABSOLUTE LYMPHOCYTE (Rattus norvegicus [1]; […], tissue Blood, time 14 day): 11694.6 CELLS/uL
- ABSOLUTE MONOCYTE (Rattus norvegicus [1]; […], tissue Blood, time 14 day): 390 CELLS/uL
- ABSOLUTE SEGMENTED NEUTROPHIL (Rattus norvegicus [1]; […], tissue Blood, time 14 day): 1365.8 CELLS/uL
- BASOPHIL (Rattus norvegicus [1]; […], tissue Blood, time 14 day): 0%
- EOSINOPHIL (Rattus norvegicus [1]; […], tissue Blood, time 14 day): 1.4%
- ERYTHROCYTE COUNT (Rattus norvegicus [1]; […], tissue Blood, time 14 day): 6.07 x10E6/uL
- HEMATOCRIT (Rattus norvegicus [1]; […], tissue Blood, time 14 day): 35.18%
- HEMOGLOBIN (Rattus norvegicus [1]; […], tissue Blood, time 14 day): 13 G/DL
- LEUKOCYTE COUNT (Rattus norvegicus [1]; […], tissue Blood, time 14 day): 13.86 x10E3/uL
- LYMPHOCYTE (Rattus norvegicus [1]; […], tissue Blood, time 14 day): 85.2%
- MEAN CORPUSCULAR HEMOGLOBIN (Rattus norvegicus [1]; […], tissue Blood, time 14 day): 21.48 pg
- MEAN CORPUSCULAR HEMOGLOBIN CONCENTRATION (Rattus norvegicus [1]; […], tissue Blood, time 14 day): 37 G/DL
- MEAN CORPUSCULAR VOLUME (Rattus norvegicus [1]; […], tissue Blood, time 14 day): 58.06 fL
- MONOCYTE (Rattus norvegicus [1]; […], tissue Blood, time 14 day): 3%
- NEUTROPHIL (Rattus norvegicus [1]; […], tissue Blood, time 14 day): 10.4%
- NUCLEATED RED BLOOD CELLS (Rattus norvegicus [1]; […], tissue Blood, time 14 day): 0 /100WBC
- PLATELET COUNT (Rattus norvegicus [1]; […], tissue Blood, time 14 day): 916.8 x10E3/uL
- ALANINE AMINOTRANSFERASE (Rattus norvegicus [1]; [3]): 59 u/L
- ALBUMIN (Rattus norvegicus [1]; [3]): 4.22 G/DL
- ALKALINE PHOSPHATASE (Rattus norvegicus [1]; [3]): 464.4 u/L
- ASPARTATE AMINOTRANSFERASE (Rattus norvegicus [1]; [3]): 88.8 u/L
- BLOOD UREA NITROGEN (Rattus norvegicus [1]; [3]): 16 mg/dL
- CARBON DIOXIDE (Rattus norvegicus [1]; [3]): 28.4 mmol/L
- CHLORIDE (Rattus norvegicus [1]; [3]): 102.2 MEQ/L
- CHOLESTEROL (Rattus norvegicus [1]; [3]): 70.2 mg/dL
- CREATININE (Rattus norvegicus [1]; [3]): 0.16 mg/dL
- GLUCOSE (Rattus norvegicus [1]; [3]): 130.8 mg/dL
- LACTATE DEHYDROGENASE (Rattus norvegicus [1]; [3]): 283.8 u/L
- LIPASE (Rattus norvegicus [1]; [3]): 10.2 u/L
- PHOSPHORUS (Rattus norvegicus [1]; [3]): 11.26 mg/dL
- POTASSIUM (Rattus norvegicus [1]; [3]): 6.64 MEQ/L
- SODIUM (Rattus norvegicus [1]; [3]): 147.56 MEQ/L
- TOTAL BILIRUBIN (Rattus norvegicus [1]; [3]): 0.28 mg/dL
- TOTAL PROTEIN (Rattus norvegicus [1]; [3]): 6.16 G/DL
- URIC ACID (Rattus norvegicus [1]; [3]): 1.56 mg/dL
- ABSOLUTE EOSINOPHIL (Rattus norvegicus [2]; tissue Blood): 0 CELLS/uL
- ABSOLUTE LYMPHOCYTE (Rattus norvegicus [2]; tissue Blood): 9295.67 CELLS/uL
- ABSOLUTE MONOCYTE (Rattus norvegicus [2]; tissue Blood): 616 CELLS/uL
- ABSOLUTE SEGMENTED NEUTROPHIL (Rattus norvegicus [2]; tissue Blood): 1621.67 CELLS/uL
- BASOPHIL (Rattus norvegicus [2]; tissue Blood): 0%
- EOSINOPHIL (Rattus norvegicus [2]; tissue Blood): 0%
- ERYTHROCYTE COUNT (Rattus norvegicus [2]; tissue Blood): 6.3 x10E6/uL
- HEMATOCRIT (Rattus norvegicus [2]; tissue Blood): 39.37%
- HEMOGLOBIN (Rattus norvegicus [2]; tissue Blood): 14.03 G/DL
- LEUKOCYTE COUNT (Rattus norvegicus [2]; tissue Blood): 11.53 x10E3/uL
- LYMPHOCYTE (Rattus norvegicus [2]; tissue Blood): 80.67%
- MEAN CORPUSCULAR HEMOGLOBIN (Rattus norvegicus [2]; tissue Blood): 22.3 pg
- MEAN CORPUSCULAR HEMOGLOBIN CONCENTRATION (Rattus norvegicus [2]; tissue Blood): 35.67 G/DL
- MEAN CORPUSCULAR VOLUME (Rattus norvegicus [2]; tissue Blood): 62.53 fL
- MONOCYTE (Rattus norvegicus [2]; tissue Blood): 5.33%
- NEUTROPHIL (Rattus norvegicus [2]; tissue Blood): 14%
- NUCLEATED RED BLOOD CELLS (Rattus norvegicus [2]; tissue Blood): 0 /100WBC
- PLATELET COUNT (Rattus norvegicus [2]; tissue Blood): 1230.33 x10E3/uL
- ALANINE AMINOTRANSFERASE (Rattus norvegicus [2]; tissue Plasma): 176 u/L
- ALBUMIN (Rattus norvegicus [2]; tissue Plasma): 4.43 G/DL
- ALKALINE PHOSPHATASE (Rattus norvegicus [2]; tissue Plasma): 416.33 u/L
- ASPARTATE AMINOTRANSFERASE (Rattus norvegicus [2]; tissue Plasma): 280 u/L
- BLOOD UREA NITROGEN (Rattus norvegicus [2]; tissue Plasma): 20 mg/dL
- CARBON DIOXIDE (Rattus norvegicus [2]; tissue Plasma): 28.67 mmol/L
- CHLORIDE (Rattus norvegicus [2]; tissue Plasma): 99.33 MEQ/L
- CHOLESTEROL (Rattus norvegicus [2]; tissue Plasma): 69.67 mg/dL
- CREATININE (Rattus norvegicus [2]; tissue Plasma): 0.23 mg/dL
- GLUCOSE (Rattus norvegicus [2]; tissue Plasma): 154.33 mg/dL
- LACTATE DEHYDROGENASE (Rattus norvegicus [2]; tissue Plasma): 419.67 u/L
- LIPASE (Rattus norvegicus [2]; tissue Plasma): 10.67 u/L
- PHOSPHORUS (Rattus norvegicus [2]; tissue Plasma): 12.9 mg/dL
- POTASSIUM (Rattus norvegicus [2]; tissue Plasma): 5.56 MEQ/L
- SODIUM (Rattus norvegicus [2]; tissue Plasma): 146.57 MEQ/L
- TOTAL BILIRUBIN (Rattus norvegicus [2]; tissue Plasma): 0.23 mg/dL
- TOTAL PROTEIN (Rattus norvegicus [2]; tissue Plasma): 6.53 G/DL
- URIC ACID (Rattus norvegicus [2]; tissue Plasma): 1.4 mg/dL
